This note sets out measurements from patent publication US9593103B2, “Pyridyl hydrazones for the treatment of tuberculosis and related diseases” (TECNIMEDE SOCIEDADE TECNICO-MEDICINAL S.A., priority 2012, dated 2017).

This assay has as its system Mycobacterium smegmatis. Description: In vitro Mycobacterium smegmatis growth inhibition assay (suspension turbidity, 96 hours). It is filed as cell-based. As to conditions: for % of Celular Growth at 96 hours: Mycobacterium smegmatis; for IC50: concentration to inhibit 50% of Mycobacterium smegmatis growth, four parameter curve fit; for inhibitory activity against Mycobacterium smegmatis growth (in words, compared with RMP): compared with the active control RMP.

Usually IC50 stands for the concentration at which inhibition is half-maximal. Low values mean greater potency in that assay, high ones weaker potency in that assay. In the case of `CO[C@H]1/C=C/O[C@@]2(C)Oc3c(C)c(O)c4c(O)c(c(/C=N/N5CCN(C)CC5)c(O)c4c3C2=O)NC(=O)/C(C)=C\C=C\[C@H](C)[C@H](O)[C@@H](C)[C@@H](O)[C@@H](C)[C@H](OC(C)=O)[C@@H]1C` [Rifampicin, reference compound], the “% of Celular Growth at 96 hours” value is 82.55% (concentration 1.23 μM); 81.40% (concentration 3.70 μM); 90.62% (concentration 11.11 μM); 58.04% (concentration 33.33 μM); 22.26% (concentration 100.00 μM). The compound also had a concentration for half-maximal inhibition (IC50) (Mycolicibacterium smegmatis) of 24.8 µM.

On to “3,5-dibromo-2-hydroxybenzaldehyde (2-pyridinyl)hydrazine [Compound 42]”, for which the “inhibitory activity against Mycobacterium smegmatis growth (in words, compared with RMP)” value is “better IC50 values than RMP” and the IC50 was found to be 15.2 µM. Besides, for the setting “concentration 1.23 μM”, the “% of Celular Growth at 96 hours” value is recorded as 110.06%. For the same compound, the “% of Celular Growth at 96 hours” value (concentration 3.70 μM) is 104.48%. Further, the “% of Celular Growth at 96 hours” value (concentration 11.11 μM) is on record as 98.17%. Besides, the “% of Celular Growth at 96 hours” value (concentration 33.33 μM) is reported as 41.52%. For the same compound, the “% of Celular Growth at 96 hours” value (concentration 100.00 μM) is given as 31.91%. Moreover, for the setting “listed as compound 42”, the “inhibitory activity against Mycobacterium smegmatis growth (in words, compared with RMP)” value was “superior inhibitory activity against Mycobacterium smegmatis than the prior art compound RMP”.

With “2-hydroxy-5-methylbenzaldehyde-(2-pyridinyl)hydrazine [Compound 61]”, the “inhibitory activity against Mycobacterium smegmatis growth (in words, compared with RMP)” value is “better IC50 values than RMP” and the IC50 came to 13.5 µM. Also, for the setting “concentration 1.23 μM”, the “% of Celular Growth at 96 hours” value is given as 75.35%. Also, the “% of Celular Growth at 96 hours” value (concentration 3.70 μM) was 69.76%. Where the note is “concentration 11.11 μM”, the “% of Celular Growth at 96 hours” value is 83.84%. Moreover, where the note is “concentration 33.33 μM”, the “% of Celular Growth at 96 hours” value is listed as 20.08%. Also, for the setting “concentration 100.00 μM”, the “% of Celular Growth at 96 hours” value stood at 24.45%. Moreover, for the setting “listed as N-pyridin-2-yl-N′-5-methyl-2-hydroxyphenylmethylene-hydrazine”, the “inhibitory activity against Mycobacterium smegmatis growth (in words, compared with RMP)” value is on record as “desired pharmacological activity”.

With `Oc1ccc(Br)cc1C=NNc1ccccn1` [Compound 70, 5-bromo-2-hydroxybenzaldehyde-2pyridinilhydrazone], the “inhibitory activity against Mycobacterium smegmatis growth (in words, compared with RMP)” value is listed as “better IC50 values than RMP” and inhibition was half-maximal at 13.9 µM (IC50). Besides, the “% of Celular Growth at 96 hours” value (concentration 1.23 μM) turned out to be 95.9%. Besides, for the setting “concentration 3.70 μM”, the “% of Celular Growth at 96 hours” value was 96.6%. Further, the “% of Celular Growth at 96 hours” value (concentration 11.11 μM) came to 80.0%. Moreover, the “% of Celular Growth at 96 hours” value (concentration 33.33 μM) stood at 44.2%. The “% of Celular Growth at 96 hours” value (concentration 100.00 μM) is 38.9%. In addition, under “listed as N-pyridin-2-yl-N′-5-bromo-2-hydroxyphenylmethylene-hydrazine”, the “inhibitory activity against Mycobacterium smegmatis growth (in words, compared with RMP)” value is “desired pharmacological activity”.

On to `C(=NNc1ccccn1)c1cccs1` [N-pyridin-2-yl-N′-thiophen-2-ylmethylene-hydrazine], for which the “inhibitory activity against Mycobacterium smegmatis growth (in words, compared with RMP)” value is on record as “desired pharmacological activity”.
